Reference: ChEMBL document CHEMBL1201862, “PubChem BioAssay data set” (2004)
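Protocol summary: plate cells (96-well), add compound at 5 concentrations, incubate 48 h, interpolate endpoints linearly. GI50 marks 50% less growth.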 Activity calls are given as the source filed them. Cut-off read from the data, not from the text of the source: active = GI50 up to about 1.1 µM and inactive = higher.

Key:
Experiment in all cases: growth of human tumour cells (NCI), 48 h
A498 = tested on: A498
A549 = tested on: A549
DU-145 = tested on: DU-145
EKVX = tested on: EKVX
HCC 2998 = tested on: HCC 2998
HOP-92 = tested on: HOP-92
Hs-578T = tested on: Hs-578T
IGROV-1 = tested on: IGROV-1
MCF7 = tested on: MCF7
MOLT-4 = tested on: MOLT-4
NCI-H226 = tested on: NCI-H226
OVCAR-5 = tested on: OVCAR-5
RXF 393 = tested on: RXF 393
SF-268 = tested on: SF-268
SK-MEL-28 = tested on: SK-MEL-28
SK-MEL-5 = tested on: SK-MEL-5
SNB-19 = tested on: SNB-19
SNB-75 = tested on: SNB-75
SW-620 = tested on: SW-620
T47D = tested on: T47D

Measured: GI50

C[C@]12CC[C@@H]3c4ccc(O)cc4CC[C@H]3[C@@H]1C/C(=C\c1ccncc1)[C@@H]2O
inactive: A498 5.78 µM | A549 7.36 µM | DU-145 19.1 µM | EKVX 18.5 µM | HCC 2998 7.96 µM | HOP-92 5.32 µM | Hs-578T 4.42 µM | IGROV-1 7.43 µM | MCF7 10.1 µM | MOLT-4 3.6 µM | NCI-H226 10.7 µM | OVCAR-5 28.6 µM | RXF 393 2.5 µM | SF-268 8.55 µM | SK-MEL-28 22.3 µM | SK-MEL-5 4.18 µM | SNB-19 23.4 µM | SNB-75 2.98 µM | SW-620 9.27 µM | T47D 3.55 µM
